Test results from patent US10519191B2, “Bile acid analogs as FXR/TGR5 agonists and methods of use thereof” (Enanta Pharmaceuticals, Inc., priority 2014, dated 2019).
Read-outs that look alike come from different tables or passages of the source.

Target: T1, human FXR (NR1H4) (Homo sapiens, UniProt Q96RI1)
T1 construct: host or cells: CHO (Chinese hamster ovary) reporter cells
T1 sequence (Q96RI1 1-486): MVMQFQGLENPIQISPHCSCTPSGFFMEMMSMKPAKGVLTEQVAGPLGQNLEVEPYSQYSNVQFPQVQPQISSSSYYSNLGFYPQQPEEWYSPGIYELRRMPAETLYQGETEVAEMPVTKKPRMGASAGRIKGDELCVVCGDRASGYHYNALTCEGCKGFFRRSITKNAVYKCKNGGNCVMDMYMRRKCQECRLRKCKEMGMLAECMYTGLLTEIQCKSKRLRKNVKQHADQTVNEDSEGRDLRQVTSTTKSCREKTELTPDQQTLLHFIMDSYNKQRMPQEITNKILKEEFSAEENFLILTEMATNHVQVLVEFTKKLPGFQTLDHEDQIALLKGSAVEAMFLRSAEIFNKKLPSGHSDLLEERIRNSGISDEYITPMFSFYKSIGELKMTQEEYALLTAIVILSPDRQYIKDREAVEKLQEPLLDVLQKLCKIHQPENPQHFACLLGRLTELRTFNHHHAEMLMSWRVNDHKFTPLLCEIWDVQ
Assay: Human FXR (NR1H4) Assay (Gal4 promoter driven luciferase reporter, CHO cells)
Assay type: cell-based
Excerpt: Assays Human FXR (NR1H4) Assay
Determination of a ligand mediated Gal4 promoter driven transactivation to quantify ligand binding mediated activation of FXR. FXR Reporter Assay kit purchased from Indigo Bioscience (Catalogue number: IB00601) to determine the potency and efficacy of compound developed by Enanta that can induce FXR activation. The principle application of this reporter assay system is to quantify functional activity of human FXR. The assay utilizes non-human mammalian cells, CHO (Chinese hamster ovary) cells engineered to express human NR1H4 protein (referred to as FXR). Reporter cells also incorporate the cDNA encoding beetle luciferase which catalyzes the substrates and yields photon emission. Luminescence intensity of the reaction is quantified using a plate-reading luminometer, Envision. Reporter Cells include the luciferase reporter gene functionally linked to an FXR responsive promoter. Thus, quantifying changes in luciferase expression in the treated reporter cells provides a sensitive surrogate measure of the changes in FXR activity. […] The assay is according to the manufacturer's instructions. In brief, the assay was performed in white, 96 well plates using final volume of 100 ul containing cells with different doses of compounds. Retrieve Reporter Cells from −80° C. storage. Perform a rapid thaw of the frozen cells by transferring a 10 ml volume of 37° C. cell recovery medium into the tube of frozen cells. Recap the tube of Reporter Cells and immediately place it in a 37° C. water bath for 5-10 minutes. Retrieve the tube of Reporter Cell Suspension from the water bath. Sanitize the outside surface of the tube with a 70% alcohol swab, and then transfer it into the cell culture hood. Dispense 90 μl of cell suspension into each well of the 96-well Assay Plate. Transfer the plate into 37° C. incubator, allowing the cells adherent to the bottom of the well. Dilute compounds in Dilution Plate (DP), and administrate to cells at Assay Plate (AP). DMSO content of the samples was kept at 0.2%. Cells were incubated for additional 22 hours before luciferase activities were measured. Thirty minutes before intending to quantify FXR activity, remove Detection Substrate and Detection Buffer from the refrigerator and place them in a low-light area so that they may equilibrate to room temperature. Remove the plate's lid and discard all media contents by ejecting it into an appropriate waste container. Gently tap the inverted plate onto a clean absorbent paper towel to remove residual droplets. Cells will remain tightly adhered to well bottoms. Add 100 μl of luciferase detection reagent to each well of the assay plate. Allow the assay plate to rest at room temperature for at least 5 minutes following the addition of LDR. Set the instrument (Envision) to perform a single 5 second “plate shake” prior to reading the first assay well. Read time may be 0.5 second (500 mSec) per well.

[1] = efficacy normalized to CDCA set as 100%

SMILES | EC50 [µM] | Efficacy (%) [1] [%] | Efficacy (%)
CC(C)N(O)C(=O)CC[C@@H](C)[C@H]1CC[C@H]2[C@@H]3[C@H](O)C[C@@H]4C[C@H](O)CC[C@]4(C)[C@H]3CC[C@]12C [Example 2] | > 10 | 13 | –
C[C@H](CCC(=O)N(O)C1CCCCC1)[C@H]1CC[C@H]2[C@@H]3[C@H](O)C[C@@H]4C[C@H](O)CC[C@]4(C)[C@H]3CC[C@]12C [Example 3] | > 10 | 2 | –
CC[C@H]1[C@@H](O)[C@@H]2[C@H](CC[C@]3(C)[C@@H]([C@H](C)CCC(=O)N(O)Cc4ccccc4)CC[C@@H]23)[C@@]2(C)CC[C@@H](O)C[C@@H]12 [Example 4] | 1 to 10 | 270 | –
CC[C@H]1[C@@H](O)[C@@H]2[C@H](CC[C@]3(C)[C@@H]([C@H](C)CCCc4cc(F)c(O)c(F)c4)CC[C@@H]23)[C@@]2(C)CC[C@@H](O)C[C@@H]12 [Example 9] | 1 to 10 | 271 | –
CC[C@H]1[C@@H](O)[C@@H]2[C@H](CC[C@]3(C)[C@@H]([C@H](C)CCCS(=O)(=O)[O-])CC[C@@H]23)[C@@]2(C)CC[C@@H](O)C[C@@H]12.[Na+] [Example 10] | 1 to 10 | 4 | –
CC[C@H]1[C@@H](O)[C@@H]2[C@H](CC[C@]3(C)[C@@H]([C@H](C)CCS(=O)(=O)[O-])CC[C@@H]23)[C@@]2(C)CC[C@@H](O)C[C@@H]12.[Na+] [Example 11] | – | – | 1
CC[C@H]1[C@@H](O)[C@@H]2[C@H](CC[C@]3(C)[C@@H]([C@H](C)CCS(=O)(=O)N(Cc4ccc(OC)cc4)Cc4ccc(OC)cc4)CC[C@@H]23)[C@@]2(C)CC[C@@H](O)C[C@@H]12 [Example 12] | 1 to 10 | 1 | –
CC[C@H]1[C@@H](O)[C@@H]2[C@H](CC[C@]3(C)[C@@H]([C@H](C)CCS(N)(=O)=O)CC[C@@H]23)[C@@]2(C)CC[C@@H](O)C[C@@H]12 [Example 13] | 1 to 10 | 118 | –
CC[C@H]1[C@@H](O)[C@@H]2[C@H](CC[C@]3(C)[C@@H]([C@H](C)CC=CCS(N)(=O)=O)CC[C@@H]23)[C@@]2(C)CC[C@@H](O)C[C@@H]12 [Example 14] | 0.1 to 1 | 167 | –
CC[C@H]1[C@@H](O)[C@@H]2[C@H](CC[C@]3(C)[C@@H]([C@H](C)CCCCS(N)(=O)=O)CC[C@@H]23)[C@@]2(C)CC[C@@H](O)C[C@@H]12 [Example 15] | 0.1 to 1 | 195 | –
CC[C@H]1[C@@H](O)[C@@H]2[C@H](CC[C@]3(C)[C@@H]([C@H](C)CCCCS(=O)(=O)N(C)Cc4ccccc4)CC[C@@H]23)[C@@]2(C)CC[C@@H](O)C[C@@H]12 [Example 16] | 1 to 10 | 97 | –
CC[C@H]1[C@@H](O)[C@@H]2[C@H](CC[C@]3(C)[C@@H]([C@H](C)CC=CS(N)(=O)=O)CC[C@@H]23)[C@@]2(C)CC[C@@H](O)C[C@@H]12 [Example 17] | 0.1 to 1 | 147 | –
CC[C@H]1[C@@H](O)[C@@H]2[C@H](CC[C@]3(C)[C@@H]([C@H](C)/C=C/S(=O)(=O)NCc4ccc(OC)cc4)CC[C@@H]23)[C@@]2(C)CC[C@@H](O)C[C@@H]12 [Example 18] | 1 to 10 | 16 | –
CC[C@H]1[C@@H](O)[C@@H]2[C@H](CC[C@]3(C)[C@@H]([C@H](C)/C=C/S(N)(=O)=O)CC[C@@H]23)[C@@]2(C)CC[C@@H](O)C[C@@H]12 [Example 19] | 1 to 10 | 3 | –
CC[C@H]1[C@@H](O)[C@@H]2[C@H](CC[C@]3(C)[C@@H]([C@H](C)CCS(=O)(=O)NCc4ccc(OC)cc4)CC[C@@H]23)[C@@]2(C)CC[C@@H](O)C[C@@H]12 [Example 20] | > 10 | 60 | –
CC[C@H]1[C@@H](O)[C@@H]2[C@H](CC[C@]3(C)[C@@H]([C@H](C)CCS(=O)(=O)NC(C)=O)CC[C@@H]23)[C@@]2(C)CC[C@@H](O)C[C@@H]12 [Example 21] | 1 to 10 | 74 | –
CC[C@H]1[C@@H](O)[C@@H]2[C@H](CC[C@]3(C)[C@@H]([C@H](C)CCS(=O)(=O)NC(=O)c4ccccc4)CC[C@@H]23)[C@@]2(C)CC[C@@H](O)C[C@@H]12 [Example 22] | 1 to 10 | 249 | –
CC[C@H]1[C@@H](O)[C@@H]2[C@H](CC[C@]3(C)[C@@H]([C@H](C)CCCS(N)(=O)=O)CC[C@@H]23)[C@@]2(C)CC[C@@H](O)C[C@@H]12 [Example 23] | 1 to 10 | 202 | –
CC[C@H]1[C@@H](O)[C@@H]2[C@H](CC[C@]3(C)[C@@H]([C@H](C)CCOP(=O)(O)c4ccccc4)CC[C@@H]23)[C@@]2(C)CC[C@@H](O)C[C@@H]12 [Example 24] | 1 to 10 | 75 | –
CC[C@H]1[C@@H](O)[C@@H]2[C@H](CC[C@]3(C)[C@@H]([C@H](C)CCCOP(=O)(Oc4ccccc4)c4ccccc4)CC[C@@H]23)[C@@]2(C)CC[C@@H](O)C[C@@H]12 (stereo partly drawn) [Example 26] | 1 to 10 | – | 129
CCOP(=O)(CCC[C@@H](C)[C@H]1CC[C@H]2[C@@H]3[C@H](O)[C@H](CC)[C@@H]4C[C@H](O)CC[C@]4(C)[C@H]3CC[C@]12C)OCC [Example 27] | 1 to 10 | – | 246
CCOP(=O)(CCC[C@@H](C)[C@H]1CC[C@H]2[C@@H]3[C@H](O)[C@H](CC)[C@@H]4C[C@H](O)CC[C@]4(C)[C@H]3CC[C@]12C)c1ccccc1 (stereo partly drawn) [Example 28] | 0.1 to 1 | – | 265
CCOP(=O)(CC[C@@H](C)[C@H]1CC[C@H]2[C@@H]3[C@H](O)[C@H](CC)[C@@H]4C[C@H](O)CC[C@]4(C)[C@H]3CC[C@]12C)c1ccccc1 (stereo partly drawn) [Example 29] | 1 to 10 | – | 49.
